Assays:
A549 cells = assay: Cytotoxicity Potentiation Assay; format: cell-based; settings: ratio of IC50 of topotecan alone to IC50 of topotecan in combination with test compound
Protocol: A549 cells (ATCC, Rockville, Md.) were seeded into 96-well cell culture plates (Falcon brand, Fisher Scientific, Pittsburgh, Pa.) 16 to 24 hours before experimental manipulation. Cells were then treated with a test compound (or a combination of test compounds where indicated) for either 3 days or 5 days. At the end of treatments, relative cell number was determined either by MTT assay or SRB assay. For the MTT assay, 0.2 μg/μl of MTT (3-(4,5-dimethylthiazol-2-yl)-2,5-diphenyltetrazolium bromide, Sigma Chemical Co., St. Louis, Mo.) was added to each well of a plate, and the plate was incubated in a cell-culture incubator for 4 hours. Metabolized MTT in each well was solubilized in 150 μl of DMSO (Sigma Chemical Co.) with shaking and quantified with a Wallac 1420 Victor plate reader (EG & G Wallac, Gaithersburg, Md.) at 540 nm. For the SRB assay, cells were fixed with 10% trichloroacetic acid (Sigma Chemical Co) for an hour at 4° C. After extensively washing, fixed cells were stained for 30 minutes with 0.4% sulforhodamine B (SRB, Sigma Chemical Co.) in 1% acetic acid (Sigma Chemical Co). Unbound SRB was washed away with 1% acetic acid. Then the cultures were air-dried, and bound dye was solubilized with 10 mM unbuffered Tris base (Sigma Chemical Co) with shaking. The bound dye was measured photometrically with the Wallac Victor plate reader at 515 nm. The ratio of the OD (optical density) value of a compound-treated culture to the OD value of a mock-treated culture, expressed in percentage, was used to quantify the cytotoxicity of a compound. The concentration at which a compound causes 50% cytotoxicity is referred to as IC50. To quantify the potentiation of the cytotoxicity of topotecan or temozolomide by test compounds, a dimensionless parameter PF50 is used and is defined as the ratio of the IC50 Of topotecan or temozolomide alone to the IC50 of topotecan or temozolomide in combination with a test compound. For the compounds of the invention, PF50 values were determined by testing with topotecan.

purified PARP protein = purified PARP protein (Homo sapiens, UniProt P09874); assay: PARP Enzyme Inhibition Assay; format: biochemical; settings: [32P]NAD+ incorporation, 500 μM NAD+, 25° C.; competitive inhibition fit; read-out: Inhibition Constant Ki
Protocol: The PARP enzyme-inhibiting activities of test compounds were assayed as described by Simonin et al. (J. Biol. Chem. (1993), 268:8529-8535) and Marsischky et al. (J. Biol. Chem. (1995), 270:3247-3254) with minor modifications as follows. Samples (50 μL) containing 20 nM purified PARP protein, 10 μg/mL DNAse I-activated calf thymus DNA (sigma), 500 μM NAD^+, 0.5 μCi [^32P]NAD^+, 2% DMSO, and various concentrations of test compounds were incubated in sample buffer (50 mM Tris pH 8.0, 10 mM MgCl2, 1 mM tris(carboxyethyl)phosphine HCl) at 25° C. for 5 minutes. Under these conditions, the reaction rate was linear for times up to 10 minutes. The reaction was stopped by the addition of an equal volume of ice-cold 40% trichloroacetic acid to the samples, which were then incubated on ice for 15 minutes. The samples were then transferred to a Bio-Dot microfiltration apparatus (BioRad), filtered through Whatman GF/C glass-fiber filter paper, washed 3 times with 150 μL of wash buffer (5% trichloroacetic acid, 1% inorganic pyrophosphate), and dried. [^32P]ADP-Ribose incorporation into the acid-insoluble material was quantitated using a PhosphorImager (Molecular Dynamics) and ImageQuant software. Inhibition constants (Ki) were calculated by non-linear regression analyses using the velocity equation for competitive inhibition (Segel, Enzyme Kinetics: Behavior and Analysis of Rapid Equilibrium and Steady-State Enzyme Systems, John Wiley & Sons, Inc., New York (1975), 100-125). In the case of tight-binding inhibitors, 5 nM enzyme was used and the reaction was incubated at 25° C. for 25 minutes. Ki values for tight-binding inhibitors were calculated using the equation described by Sculley et al. (Biochim. Biophys. Acta (11986), 874:44-53).

purified PARP protein, sequence (P09874 whole entry): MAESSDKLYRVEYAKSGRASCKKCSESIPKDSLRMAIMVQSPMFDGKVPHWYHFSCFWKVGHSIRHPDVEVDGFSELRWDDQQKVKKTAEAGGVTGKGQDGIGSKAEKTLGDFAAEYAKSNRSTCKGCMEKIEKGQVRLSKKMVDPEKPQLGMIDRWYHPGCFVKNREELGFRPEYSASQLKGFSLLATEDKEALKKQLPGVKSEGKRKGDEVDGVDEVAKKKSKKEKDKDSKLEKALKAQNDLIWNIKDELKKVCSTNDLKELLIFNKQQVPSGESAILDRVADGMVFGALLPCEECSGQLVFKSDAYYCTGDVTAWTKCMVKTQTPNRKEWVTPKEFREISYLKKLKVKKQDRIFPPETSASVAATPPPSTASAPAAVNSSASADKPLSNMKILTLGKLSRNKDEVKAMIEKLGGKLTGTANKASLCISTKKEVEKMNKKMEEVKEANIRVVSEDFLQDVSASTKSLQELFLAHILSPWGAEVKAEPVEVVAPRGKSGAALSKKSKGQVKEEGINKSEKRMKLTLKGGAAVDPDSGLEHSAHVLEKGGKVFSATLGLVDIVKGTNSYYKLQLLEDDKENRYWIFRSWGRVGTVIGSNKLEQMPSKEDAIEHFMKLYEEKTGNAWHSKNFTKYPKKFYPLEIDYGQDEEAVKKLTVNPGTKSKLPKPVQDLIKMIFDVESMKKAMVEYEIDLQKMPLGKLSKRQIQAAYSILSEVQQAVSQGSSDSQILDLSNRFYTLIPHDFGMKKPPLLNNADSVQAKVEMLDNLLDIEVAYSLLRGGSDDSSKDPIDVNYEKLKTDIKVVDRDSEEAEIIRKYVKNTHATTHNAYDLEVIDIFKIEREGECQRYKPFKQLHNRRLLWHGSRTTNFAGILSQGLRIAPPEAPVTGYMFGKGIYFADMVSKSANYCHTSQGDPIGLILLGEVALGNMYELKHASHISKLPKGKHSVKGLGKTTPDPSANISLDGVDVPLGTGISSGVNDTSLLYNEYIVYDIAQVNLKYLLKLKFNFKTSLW

`NC(=O)c1cccc2[nH]c(CS(=O)(=O)c3ccc(C(F)(F)F)cc3)nc12` [Compound 34, 2-(4-Trifluoromethyl-benzenesulfonylmethyl)-1H-benzimidazole-4-carboxylic Acid Amide] was tested, and the “Cytotoxicity Potentiation PF50” value (A549 cells) was 1.2 and the Ki (purified PARP protein) was 12 ± 1 nM.
For `NC(=O)c1cccc2[nH]c(CS(=O)(=O)c3ccc([N+](=O)[O-])cc3)nc12` [Compound 27, 2-(4-Nitro-benzenesulfonylmethyl)-1H-benzimidazole-4-carboxylic Acid Amide], the “Cytotoxicity Potentiation PF50” value (A549 cells) was 1.3 and the Ki (purified PARP protein) was 2.5 ± 0.2 nM.
With `CC(=O)Nc1ccc(S(=O)(=O)Cc2nc3c(C(N)=O)cccc3[nH]2)cc1` [Compound 32, 2-(4-Acetylamino-benzenesulfonylmethyl)-1H-benzimidazole-4-carboxylic Acid Amide] the “Cytotoxicity Potentiation PF50” value (A549 cells) was 1.1 and the Ki (purified PARP protein) was 3.8 ± 0.5 nM.
With `NC(=O)c1cccc2[nH]c(CS(=O)(=O)c3ccc(NC(=O)OCc4ccccc4)cc3)nc12` [Compound 38, [4(4-Carbamoyl-1H-benzoimidazol-2-ylmethanesulfonyl)-phenyl]-carbamic Acid Benzyl Ester] the “Cytotoxicity Potentiation PF50” value (A549 cells) was 1.1 and the Ki (purified PARP protein) was 16 ± 1 nM.
For `NC(=O)c1cccc2[nH]c(CS(=O)(=O)c3ccc(O)cc3)nc12` [Compound 29, 2-(4-Hydroxy-benzenesulfonylmethyl)-1H-benzimidazole-4-carboxylic Acid Amide], the “Cytotoxicity Potentiation PF50” value (A549 cells) was 1.2 and the Ki (purified PARP protein) was 24 nM.
`CCCCNCCSCc1nc2c(C(N)=O)cccc2[nH]1` [Compound 1, 2-(2-Butylamino-ethylsulfanylmethyl)-1H-benzimidazole-4-carboxylic Acid Amide] was tested, and the “Cytotoxicity Potentiation PF50” value (A549 cells) was 1.2 and the Ki (purified PARP protein) was 29 ± 7 nM.
`CC(=O)Nc1ccc(CSc2nc3c(C(N)=O)cccc3[nH]2)cc1` [Compound 42, 2-(4-Acetylamino-benzylsulfanyl)-1H-benzimidazole-4-carboxylic Acid Amide] was tested, and the “Cytotoxicity Potentiation PF50” value (A549 cells) was 1.1 and the Ki (purified PARP protein) was 11 ± 3 nM.
`CC(=O)Nc1ccc(SCc2nc3c(C(N)=O)cccc3[nH]2)cc1` [Compound 9, 2-(4-Acetylamino-phenylsulfanylmethyl)-1H-benzimidazole-4-carboxylic Acid Amide] was tested, and the “Cytotoxicity Potentiation PF50” value (A549 cells) was 1.1 and the Ki (purified PARP protein) was 10 ± 3 nM.
`CC(=O)Nc1ccc(S(=O)(=O)Cc2nc3c(C(N)=O)cccc3n2C)cc1` [Compound 48, 2-(4-Acetylamino-benzenesulfonylmethyl)-1-methyl-1H-benzoimidazole-4-carboxylic Acid Amide] was tested, and the “Cytotoxicity Potentiation PF50” value (A549 cells) was 1.2 and the Ki (purified PARP protein) was 10 ± 3 nM.
In the case of `NC(=O)c1cccc2[nH]c(CS(=O)(=O)c3ccc(NC(=O)CO)cc3)nc12` [Compound 49], the “Cytotoxicity Potentiation PF50” value (A549 cells) is reported as 1.0 and the Ki (purified PARP protein) is reported as 7.4 nM.
For `COc1ccc(S(=O)(=O)Cc2nc3c(C(N)=O)cccc3[nH]2)cc1` [Compound 33, 2-(4-Methoxy-benzenesulfonylmethyl)-1H-benzimidazole-4-carboxylic Acid Amide], the “Cytotoxicity Potentiation PF50” value (A549 cells) was 1.3 and the Ki (purified PARP protein) was 10.3 ± 0.3 nM.
For `NC(=O)c1cccc2[nH]c(C[S+]([O-])c3ccc([N+](=O)[O-])cc3)nc12` (centres unmarked) [Compound 28, 2-(4-Nitro-benzenesulfinylmethyl)-1H-benzimidazole-4-carboxylic Acid Amide], the “Cytotoxicity Potentiation PF50” value (A549 cells) was 1.4 and the Ki (purified PARP protein) was 3.9 ± 0.6 nM.
In the case of `NC(=O)c1cccc2[nH]c(CN3CCc4ccccc4C3)nc12` [Compound 19, 2-(3,4-Dihydro-1H-isoqluinolin-2-ylmethyl)-1H-benzimidazole-4-carboxylic Acid Amide], the “Cytotoxicity Potentiation PF50” value (A549 cells) is reported as 1.1 and the Ki (purified PARP protein) is reported as 22 ± 2 nM.
With `CC(=O)c1ccc(N2CCN(Cc3nc4c(C(N)=O)cccc4[nH]3)CC2)cc1` [Compound 17, 2-[4-(4-Acetyl-phenyl)-piperazin-1-vimethyl]-1H-benzimidazole-4-carboxylic Acid Amide] the “Cytotoxicity Potentiation PF50” value (A549 cells) was 1.2 and the Ki (purified PARP protein) was 19 ± 2 nM.
In the case of `CCCCNCCS(=O)(=O)Cc1nc2c(C(N)=O)cccc2[nH]1` [Compound 30, 2-(2-Butylamino-ethanesulfonylmethyl)-1H-benzimidazole-4-carboxylic Acid Amide], the “Cytotoxicity Potentiation PF50” value (A549 cells) is reported as 1.1 and the Ki (purified PARP protein) is reported as 26 nM.
`CN(CCc1ccccc1)Cc1nc2c(C(N)=O)cccc2[nH]1` [Compound 18, 2-[(Methyl-phenethyl-amino)-methyl]-1H-benzimidazole-4-carboxylic Acid Amide] was tested, and the “Cytotoxicity Potentiation PF50” value (A549 cells) was 1.4 and the Ki (purified PARP protein) was 8.6 ± 0.1 nM.
Compound `NC(=O)c1cccc2[nH]c(CNC3CN4CCC3CC4)nc12` (centres unmarked) [Compound 21, 2-[(1-Aza-bicyclo[2.2.2]oct-3-ylamino)-methyl]-1H-benzimidazole-4-carboxylic Acid Amide] has a Ki (purified PARP protein) of 9 ± 2 nM.
Compound `NC(=O)c1cccc2[nH]c(CN3CCC(N)C3)nc12` (centres unmarked) [Compound 22, 2-(3-Amino-pyrrolidin-1-ylmethyl)-1H-benzimidazole-4-carboxylic Acid Amide] has a Ki (purified PARP protein) of 17 nM.
`COc1ccc(SCc2nc3c(C(N)=O)cccc3[nH]2)cc1` [Compound 8, 2-(4-Methoxy-phenylsulfanylmethyl)-1H-benzimidazole-4-carboxylic Acid Amide] gave a Ki (purified PARP protein) of 9 ± 1 nM.
Work on `NC(=O)c1cccc2c1nc1n2CCSC1` [Compound 47, 3,4-Dihydro-1H-2-thia-4a,9-diaza-fluorene-8-carboxylic Acid Amide] yielded a Ki (purified PARP protein) of 93 ± 10 nM.
With `NC(=O)c1cccc2[nH]c(CSc3ccccc3C3=NCCCN3)nc12` [Compound 7] the “Cytotoxicity Potentiation PF50” value (A549 cells) was 2.2 and the Ki (purified PARP protein) was 6.9 ± 0.4 nM.

Reference: patent US20040034078A1 (Agouron Pharmaceuticals, Inc., priority 2002, published 2004)
